Data as given in the C3SDB collision cross section collection.
Where “and” joins values, the source holds several entries; their conditions need not be identical. Identical values can stand only once.

Conditions: instrument: DT, single field, calibrated with ESI Low Concentration Tuning Mix (Agilent)

| Structure (SMILES) | collision cross section (N2) ([M+H]+) | collision cross section (N2) ([M+Na]+) | collision cross section (N2) ([M-H]-) | collision cross section (N2) ([M+Na-2H]-) | collision cross section (N2) ([M+H2O-H]-) | collision cross section (N2) ([M+K]+) |
| --- | --- | --- | --- | --- | --- | --- |
| N[C@@H](Cc1cc(I)c(O)c(I)c1)C(=O)O [3,5-DIIODO-L-TYROSINE] | 171.1 Å² | 165.2 Å² | 159.3 Å² | – | – | – |
| Nc1cc(C(=O)O)ccc1[O-] [3-AMINO-4-HYDROXYBENZOATE] | 139.6 Å² | – | 125.7 Å² | – | – | – |
| CC(C)(COP(=O)(O)OP(=O)(O)OC[C@H]1O[C@@H](n2cnc3c(N)ncnc32)[C@H](O)[C@@H]1OP(=O)(O)O)[C@@H](O)C(=O)NCCC(=O)NCCSC(=O)C[C@@](C)(O)CC(=O)O [3-HYDROXY-3-METHYLGLUTARYL-COA] | 265.4 Å² | 266.2 Å² | 261.9 Å² | 267.3 Å² | – | – |
| Nc1c(O)cccc1C(=O)O [3-HYDROXYANTHRANILATE] | 131.2 Å² | – | 127.8 Å² | – | – | – |
| COc1cc(CCN)ccc1O [3-METHOXYTYRAMINE] | 146.7 Å² | – | – | – | – | – |
| CC(C)=CC(=O)SCCNC(=O)CCNC(=O)C(O)C(C)(C)COP(=O)(O)OP(=O)(O)OC[C@H]1O[C@@H](n2cnc3c(N)ncnc32)[C@H](O)[C@@H]1OP(=O)(O)O (stereo not given in full) [3-METHYLCROTONYL-COA] | 256.1 Å² | – | 256.7 Å² | 266.9 Å² | – | – |
| N[C@@H](Cc1ccc(O)c([N+](=O)[O-])c1)C(=O)O [3-NITRO-L-TYROSINE] | 158.2 Å² | 154.5 Å² | 148.9 Å² | 147.7 Å² | – | – |
| O=C(O)C(O)COP(=O)(O)O (stereo not given) [3-PHOSPHOGLYCERATE] | 136.1 Å² | 139.4 Å² | 124.4 Å² | 133 Å² and 141.6 Å² | – | – |
| CC(=O)NCCCC(=O)O [4-ACETAMIDOBUTANOATE] | – | 135.7 Å² | 130.8 Å² | – | – | – |
| NC(N)=NCCCC(=O)O [4-GUANIDINOBUTANOATE] | 130 Å² | – | – | – | – | – |
| O=Cc1ccc(O)cc1 [4-HYDROXYBENZALDEHYDE] | – | – | 118.2 Å² | – | – | – |
| O=C(O)c1ccc([O-])cc1 [4-HYDROXYBENZOATE] | – | – | 121.2 Å² | – | – | – |
| NCC(=O)CCC(=O)O [5-AMINOLEVULINATE] | 130.7 Å² | – | – | – | – | – |
| NCCc1cc(O)c(O)cc1O [6-HYDROXYDOPAMINE] | 143 Å² | – | – | – | – | – |
| O=C(O)c1ccc(=O)[nH]c1 [6-HYDROXYNICOTINATE] | 128.9 Å² | – | – | – | – | – |
| O=C(O)[C@H](O)[C@@H](O)[C@H](O)[C@H](O)COP(=O)(O)O [6-PHOSPHOGLUCONATE] | – | 157.6 Å² | 143.6 Å² | 148.9 Å² | – | – |
| Nc1ncnc2c1ncn2C1OC(CO)C2OP(=O)(O)OC21 (stereo not given) [ADENOSINE 2',3'-CYCLIC PHOSPHATE] | 168.1 Å² | 175.1 Å² and 181 Å² | 169.4 Å² | – | 173.5 Å² | – |
| Nc1ncnc2c1ncn2[C@@H]1O[C@H](COP(=O)(O)OP(=O)(O)O)[C@@H](O)[C@H]1O [ADENOSINE 5'-DIPHOSPHATE] | 187 Å² | 193.1 Å² | 183.7 Å² | 187.7 Å² | – | – |
| NC(=O)NC1NC(=O)NC1=O (stereo not given) [ALLANTOIN] | – | 142.2 Å² | 125.5 Å² | – | – | – |

| Structure (SMILES) | collision cross section (N2) ([M+H]+) | collision cross section (N2) ([M+Na]+) | collision cross section (N2) ([M-H]-) | collision cross section (N2) ([M+Na-2H]-) | collision cross section (N2) ([M+H2O-H]-) | collision cross section (N2) ([M+K]+) |
| --- | --- | --- | --- | --- | --- | --- |
| OC[C@H]1OC(O)[C@H](O)[C@H](O)[C@@H]1O (stereo not given in full) [ALLOSE] | – | 143.2 Å² and 146.2 Å² | – | – | – | – |
| NC(CCCC(=O)O)C(=O)O (stereo not given) [AMINOADIPATE] | 134.6 Å² | 139.2 Å² | 129.9 Å² | 134 Å² | – | – |
| Nc1ccccc1C(=O)O [ANTHRANILATE] | – | – | 125.5 Å² | – | – | – |
| CCCCCCCCCCCCCCCCCCCC(=O)O [ARACHIDATE] | – | – | 185.1 Å² | – | – | – |
| NC(=O)C[C@H](N)C(=O)O [ASPARAGINE] | – | 129.5 Å² | 121.9 Å² | – | – | – |
| C[N+](C)(C)CC(=O)[O-] [BETAINE] | – | – | – | – | – | 130.5 Å² |
| C=CC1=C(C)C(/C=c2\[nH]/c(=C\c3[nH]c(/C=C4\NC(=O)C(C)=C4C=C)c(C)c3CCC(=O)O)c(CCC(=O)O)c2C)=NC1=O [BILIVERDIN] | 243.9 Å² | 246.5 Å² | 246 Å² | – | – | – |
| O=C(O)[C@H]1C[C@@H](O)CN1 [CIS-4-HYDROXY-D-PROLINE] | 128.3 Å² | 130.6 Å² | 124.3 Å² | – | – | – |
| CC(O)(CC(=O)O)C(=O)O (stereo not given) [CITRAMALATE] | – | 133.2 Å² | 122 Å² | – | – | – |
| COC1=C(OC)C(=O)C(C/C=C(\C)CC/C=C(\C)CC/C=C(\C)CC/C=C(\C)CC/C=C(\C)CC/C=C(\C)CC/C=C(\C)CC/C=C(\C)CC/C=C(\C)CCC=C(C)C)=C(C)C1=O [COENZYME Q10] | – | 306.6 Å² | – | – | – | – |
| CC(=O)OCC(=O)[C@@]1(O)CC[C@H]2[C@@H]3CCC4=CC(=O)CC[C@]4(C)[C@H]3[C@@H](O)C[C@@]21C [CORTISOL 21-ACETATE] | 198.8 Å² | 203 Å² | 196.3 Å² | – | – | 207.2 Å² |
| Nc1nc(=O)c2ncn([C@@H]3O[C@@H]4COP(=O)(O)O[C@H]4[C@H]3O)c2[nH]1 [CYCLIC GMP] | 172.4 Å² | 184.2 Å² | 167.8 Å² | 169.7 Å² | – | – |
| NC(CCSCC(N)C(=O)O)C(=O)O (stereo not given) [CYSTATHIONINE] | 147.3 Å² | 147.1 Å² | 141.9 Å² | 144.6 Å² | – | – |
| Nc1ccn([C@@H]2O[C@H](COP(=O)(O)O)[C@@H](O)[C@H]2O)c(=O)n1 [CYTIDINE MONOPHOSPHATE] | 166.8 Å² and 167 Å² | 167.9 Å² and 168 Å² | 164.4 Å² and 164.5 Å² | 163.2 Å² and 163.4 Å² | – | – |
| Nc1ccn([C@@H]2O[C@H](COP(=O)(O)OP(=O)(O)OP(=O)(O)O)[C@@H](O)[C@H]2O)c(=O)n1 [CYTIDINE TRIPHOSPHATE] | 188.4 Å² | 192.4 Å² | 181.2 Å² | 185 Å² | – | – |
| Nc1ccnc(=O)[nH]1 [CYTOSINE] | 122.8 Å² | – | – | – | – | – |
| N[C@@H]1C(O)O[C@H](CO)[C@@H](O)[C@@H]1O (stereo partly drawn) [D-MANNOSAMINE] | 138.1 Å² | 141.3 Å² | – | – | – | – |
| Nc1ncnc2c1ncn2[C@H]1C[C@H](O)[C@@H](COP(=O)(O)O)O1 [DEOXYADENOSINE MONOPHOSPHATE] | 168.5 Å² | 173 Å² | 164.9 Å² | 169.8 Å² | – | – |
